Test results reported in ChEMBL document CHEMBL1151357, “Inhibition of Plant Growth by Phenethylamines and Tetrahydroisoquinolines” (1981).
The source made the active and inactive calls. No cut-off for these calls is given here.

What was measured:
Phaseolus vulgaris [1] = test: Growth inhibition of pinto bean plants assessed as inhibition of second inter node elongation at 50 ug after 4 days relative to control; assay type: functional
Phaseolus vulgaris [2] = test: Growth inhibition of pinto bean plants assessed as inhibition of second inter node elongation at 150 ug after 4 days relative to control; assay type: functional
Phaseolus vulgaris [3] = test: Phytotoxicity against pinto bean plants assessed as induction of necrosis at 50 ug after 4 days; assay type: functional, organism-based
Phaseolus vulgaris [4] = test: Phytotoxicity against pinto bean plants assessed as induction of necrosis at 150 ug after 4 days; assay type: functional, organism-based
Phaseolus vulgaris [5] = test: Growth promoting activity in pinto bean plants at =>150 ug after 4 days; assay type: functional, organism-based
Sorghum bicolor = test: Growth inhibition of Rio sorghum seedlings assessed as shoot growth from seed coat to tip of second leaf at 1 mg/ml after 4 days; assay type: functional

SMILES: Cl.NCCc1cc(O)c(O)cc1O [OXIDOPAMINE HYDROCHLORIDE]
- inhibition (INH) (Phaseolus vulgaris [1]): 26%
- inhibition (INH) (Phaseolus vulgaris [2]): 26%

SMILES: COc1cc2c(c(OC)c1OC)CNCC2
- Activity (Phaseolus vulgaris [3]): Active
- Activity (Phaseolus vulgaris [4]): Active

SMILES: COc1cc(CCN)cc(O)c1OC.Cl
- inhibition (INH) (Phaseolus vulgaris [1]): 76%
- Activity (Phaseolus vulgaris [3]): Active
- Activity (Phaseolus vulgaris [4]): Active
- inhibition (INH) (Phaseolus vulgaris [2]): 76%

SMILES: CN1CCc2cc3c(c(O)c2C1)OCO3.Cl
- Activity (Phaseolus vulgaris [5]): Active
- inhibition (INH) (Phaseolus vulgaris [1]): 0%
- inhibition (INH) (Phaseolus vulgaris [2]): 0%

SMILES: COc1cc2c(cc1O)CCN[C@H]2C.Cl [SALSOLINE HYDROCHLORIDE]
- inhibition (INH) (Phaseolus vulgaris [1]): 26%
- inhibition (INH) (Phaseolus vulgaris [2]): 51%

SMILES: COc1cc(CC[N+](C)(C)C)cc(OC)c1OC.[I-] [TRICHOCERINE METHYL IODIDE]
- inhibition (INH) (Phaseolus vulgaris [1]): 76%
- Activity (Phaseolus vulgaris [3]): Active
- Activity (Phaseolus vulgaris [4]): Active
- inhibition (INH) (Phaseolus vulgaris [2]): 76%
- Activity (Sorghum bicolor): 36.22 mm

SMILES: COc1cc2c(c(OC)c1OC)CNCC2.Cl [ANHALININE HYDROCHLORIDE]
- inhibition (INH) (Phaseolus vulgaris [1]): 0%
- inhibition (INH) (Phaseolus vulgaris [2]): 100%

SMILES: COc1cc2c(c(O)c1OC)[C@H](C)N(C)CC2.Cl [PELLOTINE HYDROCHLORIDE]
- inhibition (INH) (Phaseolus vulgaris [1]): 26%
- inhibition (INH) (Phaseolus vulgaris [2]): 0%

SMILES: COc1cc2c(c(OC)c1OC)[C@H](C)[N+](C)(C)CC2.[I-]
- inhibition (INH) (Phaseolus vulgaris [1]): 26%
- Activity (Phaseolus vulgaris [3]): Active
- inhibition (INH) (Phaseolus vulgaris [2]): 51%

SMILES: O=C(O)C1NCCc2cc(O)c(O)cc21 (stereo unspecified)
- Activity (Phaseolus vulgaris [5]): Active
- inhibition (INH) (Phaseolus vulgaris [1]): 26%
- inhibition (INH) (Phaseolus vulgaris [2]): 26%

SMILES: C[N+](C)(C)CCc1ccc(O)cc1.[I-] [CANDICINE IODIDE]
- inhibition (INH) (Phaseolus vulgaris [1]): 76%
- Activity (Phaseolus vulgaris [3]): Active
- Activity (Phaseolus vulgaris [4]): Active
- inhibition (INH) (Phaseolus vulgaris [2]): 76%
- Activity (Sorghum bicolor): 33.22 mm

SMILES: COc1cc2c(c(OC)c1OC)C(O)CNC2 (stereo unspecified)
- inhibition (INH) (Phaseolus vulgaris [1]): 0%
- inhibition (INH) (Phaseolus vulgaris [2]): 0%

SMILES: COc1cc2c(c(OC)c1OC)C(C)NCC2.Cl (racemic)
- inhibition (INH) (Phaseolus vulgaris [1]): 26%
- inhibition (INH) (Phaseolus vulgaris [2]): 51%

SMILES: Cl.NCC(O)c1cccc(O)c1 (stereo unspecified) [NORPHENYLEPHRINE HYDROCHLORIDE]
- inhibition (INH) (Phaseolus vulgaris [1]): 26%

SMILES: COc1cc(CCN)cc(OC(=O)c2ccccc2)c1OC.Cl
- inhibition (INH) (Phaseolus vulgaris [1]): 51%
- inhibition (INH) (Phaseolus vulgaris [2]): 0%

SMILES: COC(=O)c1cccn1CCc1cc(OC)c(OC)c(OC)c1 [PEYONINE METHYL ESTER]
- inhibition (INH) (Phaseolus vulgaris [1]): 0%

SMILES: COc1cc([C@@H](O)[C@H](C)N)cc(OC)c1OC
- Activity (Phaseolus vulgaris [4]): Active

SMILES: COc1cc([C@@H](O)[C@H](C)N)cc(OC)c1OC.Cl
- inhibition (INH) (Phaseolus vulgaris [1]): 26%
- inhibition (INH) (Phaseolus vulgaris [2]): 26%

SMILES: COc1c(OC(=O)c2ccccc2)c(OC(=O)c2ccccc2)cc2c1C(C)NCC2.Cl (stereo unspecified)
- inhibition (INH) (Phaseolus vulgaris [1]): 26%
- inhibition (INH) (Phaseolus vulgaris [2]): 26%

SMILES: COc1cc2c(cc1OC)[C@H](C)N(C)CC2.Cl [CARNEGINE HYDROCHLORIDE]
- inhibition (INH) (Phaseolus vulgaris [1]): 100%
- Activity (Phaseolus vulgaris [3]): Active
- inhibition (INH) (Phaseolus vulgaris [2]): 100%

SMILES: O=C1CCC2(C(=O)O)c3cc(O)c(O)cc3CCN12 (stereo unspecified)
- Activity (Phaseolus vulgaris [5]): Active
- inhibition (INH) (Phaseolus vulgaris [1]): 26%
- inhibition (INH) (Phaseolus vulgaris [2]): 26%

SMILES: CC1(C(=O)O)NCCc2cc(O)c(O)cc21 (stereo unspecified)
- Activity (Phaseolus vulgaris [5]): Active
- inhibition (INH) (Phaseolus vulgaris [1]): 51%
- inhibition (INH) (Phaseolus vulgaris [2]): 0%

SMILES: COc1ccc2c(c1OC)C(C)N(C)CC2.Cl (racemic)
- inhibition (INH) (Phaseolus vulgaris [1]): 26%
- Activity (Phaseolus vulgaris [4]): Active
- inhibition (INH) (Phaseolus vulgaris [2]): 100%

SMILES: COc1cc2c(c(O)c1OC)[C@H](C)[N+](C)(C)CC2.[I-]
- inhibition (INH) (Phaseolus vulgaris [1]): 0%
- Activity (Phaseolus vulgaris [3]): Active
- inhibition (INH) (Phaseolus vulgaris [2]): 51%

SMILES: COc1cc(CCn2cccc2C(=O)O)cc(OC)c1OC [PEYONINE]
- inhibition (INH) (Phaseolus vulgaris [1]): 0%

SMILES: COc1cc([C@@H](O)[C@H](C)N)cc(O)c1OC.O=C(O)C(=O)O
- inhibition (INH) (Phaseolus vulgaris [1]): 0%
- Activity (Phaseolus vulgaris [4]): Active
- inhibition (INH) (Phaseolus vulgaris [2]): 26%

SMILES: COc1cc([C@@H](O)[C@H](C)N)cc(OC)c1OC.O=C(O)C(=O)O
- inhibition (INH) (Phaseolus vulgaris [1]): 26%
- inhibition (INH) (Phaseolus vulgaris [2]): 0%

SMILES: COc1cc(CCn2cccc2)cc(OC)c1OC [DECARBOXYPEYONINE]
- inhibition (INH) (Phaseolus vulgaris [1]): 51%
- inhibition (INH) (Phaseolus vulgaris [2]): 26%

SMILES: COc1cc([C@@H](O)[C@H](C)N)cc(OC)c1OC.O=C(O)C(O)C(O)C(=O)O
- inhibition (INH) (Phaseolus vulgaris [1]): 26%
- inhibition (INH) (Phaseolus vulgaris [2]): 0%

SMILES: Cl.NCCc1ccc(O)c(O)c1 [DOPAMINE HYDROCHLORIDE]
- inhibition (INH) (Phaseolus vulgaris [1]): 26%
- inhibition (INH) (Phaseolus vulgaris [2]): 0%
- Activity (Sorghum bicolor): 40.44 mm

SMILES: CI.COc1cc2c(c(OC)c1OC)CNCC2 [ANHALININE METHYLIODIDE]
- inhibition (INH) (Phaseolus vulgaris [1]): 100%
- inhibition (INH) (Phaseolus vulgaris [2]): 100%
